Assay results from patent US20240270743A1, “TETRAHYDROPYRAZOLOPYRIDINE-ANALOG LIGANDS OF NLRX1 AND USES THEREOF” (LANDOS BIOPHARMA, INC., priority 2021, published 2024).

How the values were obtained:
CD4+ T cells = experiment: Immunological screening in vitro in CD4+ T cells (flow cytometry); assay type: cell-based, C57BL/6 mice; settings: 100 nanomolar, 24 h, anti-CD3/CD28, PMA and ionomycin last 6 h; for production of TNFα / percentage of TNFα+ CD4+ T cells: relative to vehicle control (FIG. 3A); for production of IFNγ / percentage of IFNγ+ CD4+ T cells: relative to vehicle control (FIG. 3B)
From the text: Cell culture. Spleens were excised from C57BL/6 mice. Spleens were crushed between the frosted ends of microscope slides and filtered to provide a cellular suspension. Red blood cells were lysed through hypotonic lysis. Remaining cells were washed and filtered. CD4+ T cells were enriched within the suspension using magnetic sorting based negative selection. Cells were collected and plated within 96 well plates coated with anti-CD3/CD28 and cultured in the presence of LABP-72-4, LABP-72-38, LABP-72-56, LABP-72-69 at 0 or 100 nanomolar for 24 h. During the last 6 h of culture, cells were stimulated with phorbol 12-myristate-13-acetate (PMA) and ionomycin.
Immunological analysis. Cells were collected from 96 well plates and stained with a cocktail of antibodies for immunophenotyping by flow cytometry. Culture supernatant was collected and assayed for cytokine concentrations by cytometric bead array. Data was captured on a BD FACS Celesta and analyzed using FACSDiva.

[1] = system: OVA-induced model of asthma; experiment: OVA-induced model of asthma; assay type: in vivo, BALB/c mice; settings: 50 mg/kg daily by oral gavage, days 14-17, day 18
Method: OVA-induced model. BALB/c mice were immunized with 10 μg of ovalbumin (OVA) in aluminum hydroxide gel by intraperitoneal injection on day 0 and 7 of the experiment. Mice were then exposed to OVA (8% w/v) by aerosolization for 25 minutes daily between days 14 and 17. Treatment with LABP-72-38 (50 mg/kg) or vehicle control occurred daily between days 14 and 17 by oral gavage. An unchallenged negative control group was included for comparison. Dosage was calculated based off mean body weights. Immunological analysis. Lungs were collected on day 18 (OVA) or day 27 (HDM). Lung tissue was minced and digested in RPMI supplemented with FBS, HEPES, and calcium chloride containing 300 U/mL collagenase and 50 U/mL DNase for 45 minutes at 37° C. After filtration, red blood cells were lysed. Cells were labeled with mixtures of extracellular (CD45, CD3, CD4, CD8, MHCII, CD11b, CD11c, SiglecF, Ly6C, Ly6G) antibodies in a sequential live staining in 96-well plates in preparation for flow cytometry. Data was captured on a BD FACS Celesta and analyzed using FACSDiva.

[2] = system: high fat diet induced obesity model; experiment: High fat diet-induced model of obesity; assay type: in vivo, C57BL6 mice; settings: 10 mg/kg daily oral gavage for 4 weeks
Method: Mouse model. C57BL6 mice were challenged with 16 weeks of high fat feeding by ad libitum exposure to rodent diet chow containing 60% kcal from fat. After 12 weeks of challenge, mice were treated daily with LABP-72-38 at 10 mg/kg for 4 weeks. Treatment was delivered by oral gavage. Mice were weighed weekly. Blood glucose levels were measured by glucometer on blood collected from the tail vein. After 16 weeks of diet, livers were excised and weighed. Weights were normalized to the total body weight.

[3] = system: house dust mite model of asthma; experiment: House dust mite (HDM)-induced model of asthma; assay type: in vivo, BALB/c mice; settings: 20 mg/kg daily intranasal, 3 weeks of house dust mite challenge
Method: HDM-induced model. BALB/c mice were sensitized to house dust mite with 25 μg administered daily by intranasal instillation for five days. Challenge with house dust mite (25 μg/d) occurred for 5 consecutive days for the following three weeks. Treatment with LABP-72-38 (20 mg/kg) or vehicle control occurred daily during this three-week period. An unchallenged negative control group was included for comparison. Immunological analysis. Lungs were collected on day 18 (OVA) or day 27 (HDM). Lung tissue was minced and digested in RPMI supplemented with FBS, HEPES, and calcium chloride containing 300 U/mL collagenase and 50 U/mL DNase for 45 minutes at 37° C. After filtration, red blood cells were lysed. Cells were labeled with mixtures of extracellular (CD45, CD3, CD4, CD8, MHCII, CD11b, CD11c, SiglecF, Ly6C, Ly6G) antibodies in a sequential live staining in 96-well plates in preparation for flow cytometry. Data was captured on a BD FACS Celesta and analyzed using FACSDiva.

[4] = system: bleomycin mouse model of pulmonary fibrosis; experiment: Bleomycin-induced model of pulmonary fibrosis; assay type: in vivo, C57BL/6 mice; settings: 50 mg/kg once daily oral gavage from day 7, lungs 2 weeks after bleomycin
Method: Bleomycin model. C57BL/6 mice were anesthetized by isoflurane and intratracheally administered 1 mg/kg bleomycin at day 0. LABP-72-38 was prepared within a 0.5% methylcellulose (12-15 cP) solution. Dosage used was 50 mg/kg delivered once daily, by oral gavage beginning 7 days after bleomycin challenge. Lungs were collected 2 weeks after bleomycin challenge.
Flow Cytometry. Lungs were collected into RPMI/FBS buffer containing collagenase (300U/mL) and DNase (50U/mL) for digestion. Tissues were digested for 45 minutes under stirring at 37° C. Resultant cellular suspensions were filtered through 100 μm strainers, and centrifuged (300× g, 8 min). Red blood cells were lysed from the cellular suspensions. Cells were filtered and washed in fresh RPMI. Cells were labeled with mixtures of extracellular (CD45, CD3, CD4, CD8, CD19, NK1.1, F4/80, CD11b, Gr1) and intracellular (IL21) antibodies in a sequential live staining in 96-well plates. Data was acquired using a FACS Celesta flow cytometer with FACSDiva software.

| Compound | production of TNFα / percentage of TNFα+ CD4+ T cells (CD4+ T cells) | production of IFNγ / percentage of IFNγ+ CD4+ T cells (CD4+ T cells) | percentage of eosinophils within the lung ([1]; relative to vehicle control (FIG. 4A)) | concentrations of anti-OVA IgE antibodies in the serum ([1]; relative to vehicle control (FIG. 4B)) | blood glucose level ([2]; 16 weeks high fat diet (FIG. 7A)) | body weight normalized liver weight ([2]; 16 weeks high fat diet, compared to vehicle (FIG. 7B)) | percentage of eosinophils within the lung ([3]; relative to vehicle control (FIG. 5A)) | percentage of neutrophils within the lung ([3]; relative to vehicle control (FIG. 5B)) | proportions of neutrophils in the lungs ([4]; relative to vehicle (FIG. 6A)) | proportions of IL21+ cells in the lungs ([4]; relative to vehicle (FIG. 6B)) |
| --- | --- | --- | --- | --- | --- | --- | --- | --- | --- | --- |
| O=C(O)Cc1cncc(N2CCc3nn(-c4cc(F)cc(F)c4)cc3C2=O)c1 [LABP-72-4] | significantly reducing | significantly reducing | – | – | – | – | – | – | – | – |
| O=C(O)Cc1cncc(N2CCc3nn(-c4cc(F)cc(F)c4)cc3C2=O)c1 [LABP-72-38, 2-(5-(2-(3,5-difluorophenyl)-4-oxo-2,4,6,7-tetrahydro-5H-pyrazolo[4,3-c]pyridin-5-yl)pyridin-3-yl)acetic acid] | – | – | reduced | reducing | reduced | reduced | reduced | reduced | decreased | decreased |
| O=C(O)Cc1ccc(N2CCc3c(cnn3-c3cc(F)cc(F)c3)C2=O)cn1 [LABP-72-69, 2-(5-(1-(3,5-difluorophenyl)-4-oxo-1,4,6,7-tetrahydro-5H-pyrazolo[4,3-c]pyridin-5-yl)pyridin-2-yl)acetic acid] | significantly reducing | significantly reducing | – | – | – | – | – | – | – | – |
